Experimental data reported in US20050025758A1, “Method and compositions for treatment of insulin-dependant diabetes mellitus” (priority 1996, published 2005).
Marks after values point to notes of the source that are not given here.

Legend:
[1] = tested on: splenocytes from aerosol-treated mice; assay: Proliferative responses of splenocytes from aerosol-treated mice ([3H]-thymidine uptake); assay type: cell-based, mouse
Description: (§1) Spleen cells from individual normoglycemic mice were treated with a red cell lysis buffer, resuspended and incubated in quadruplicate at 2×10^5/200 μl of serum-free HL-1 medium (Hycor, Irvine, Calif.) containing […] 2-mercaptoethanol, in round-bottom wells with the indicated concentrations of antigen. After 3 days at 37° C. in 5% v/v CO2/air, 100 μl aliquots from each replicate supernatant were collected and stored at −70° C. for cytokine assays; the cells were then pulsed with 3H-thymidine, harvested 16 hours later and counted on a Topcount™ micro-scintillation counter (Packard, Meriden, Conn.). Insulin was recombinant human (Humulin R, Eli Lilly), is used for aerosol treatments. Insulin B-chain peptide corresponding to amino acids 9-23 of mouse insulin II (Peptide Express, Fort Collins, Colo.) was more than 90% pure by HPLC analysis. GAD65 was the recombinant human form expressed with a C-terminal hexahistidine in a baculovirus system and purified by Ni^2+ chelation) affinity chromatography. It was resolved as a single band in SDS-PAGE and was endotoxin-free by the quantitative Limulus lysate assay (BioWhittaker, Walkersville, Md.).
Splenocytes from three mice per group were assayed in quadruplicate in HL-1 serum-free medium. Statistical comparisons (Mann-Whitney U tests) were between the twelve results for each group.

[2] = tested on: at-risk first-degree relatives with immune markers of IDDM; settings: intranasal
Description: A clinical trial involves administration of intranasal insulin to at-risk but otherwise healthy first-degree relatives with immune markers of IDDM, including circulating antibodies and T cells reactive with islet autoantigens.
This trial examines the effect of intranasal insulin on the surrogate immune markers of IDDM. The design is randomized, double-blind and placebo-controlled, with a crossover at six months. The placebo is the carrier solution normally used for insulin. […] Treatment is administered daily for 10 consecutive days, then for two consecutive days weekly. After six months, treatment is crossed over (from insulin to placebo, or vice versa).
The administration dose of insulin per nostril is approximately 200 μl of the commercial 4 mg/ml solution. The placebo is the carrier solution in which the insulin is normally dissolved.

female NOD mice [3] = assay: Aerosol treatment and diabetes assessment (blood glucose >11 mM); assay type: in vivo, mouse; settings: for Diabetes frequency: 32 mice/group, aerosol 10 consecutive days then weekly from 28 days of age, at 105 days of age; for diabetes incidence at 156 days of age (median) / diabetes incidence at 240 days of age (median): aerosol for 3 or 10 consecutive days and then weekly from 28 days of age, five separate experiments; for diabetes incidence at 240 days of age (median): p=0.005; for incidence of diabetes by 240 days of age: single aerosol treatment at 28 days of age, female NOD mice
Description: Semi-sealed boxes of eight female NOD mice were each aerosolized by connection to a standard, patient electric pump ([…] Aerosol MKV, Anaesthetic Supplies, Sydney, Australia) and Aeroflo nebulizer (Waite & Co., Sydney). Recombinant human insulin (Humulin R, Eli Lilly) or control ovalbumin protein, at 4 mg/ml, was delivered over 10 min. at an air flow rate of 6 litres/min. in a rated droplet size of <5.8 μm, to groups of 24-32 mice. All treatments were given between 0900 and 1100 hours. Protocols and mouse care were approved and supervised by the institutional Animal Ethic Committee. Retro-orbital venous blood was sampled at least every 28 days from 100 days of age and mice considered to be diabetic if their blood glucose, confirmed by a repeat test, was >11 mM. Glucose was measured with BM-Test Glycemic® strips and a Reflolux® II meter (Boehringer-Mannheim), on a drop of blood aspirated via a glass capillary tube from the retro-orbital venous plexus of unanesthetised mice. Aerosol human insulin or ovalbumin were administered in different schedules to female NOD mice from 28 days of age, the earliest time at which insulitis is detectable in the colony of mice, and their incidence of diabetes and severity of insulitis subsequently measured.

male NOD mice = assay: Adoptive transfer of diabetes (co-transfer of splenocytes); assay type: in vivo, mouse
[4] = humans, in the absence of absorption-promoting agents; cited from earlier work
[5] = tested on: splenocytes from aerosol-treated mice; assay: Cytokine secretion by splenocytes from aerosol-treated mice (ELISA); assay type: cell-based; settings: splenocytes with 40 μg/ml mouse insulin II B chain peptide (a 9-23), three days incubation; for IL-4 secretion / IL-10 secretion: lower limit of detection 16 pg/ml
Description: as §1
IL-2, -4, -10 and IFN-γ were measured by ELISAs with monoclonal antibody pairs (Pharmingen); the lower limits of detection were 62, 16, 16 and 55 pg/ml, respectively. TGF-β1 was measured with an ELISA kit (Promega) with a lower limit of detection of 16 pg/ml.
Supernatants from replicate culture wells (Table 2) were sampled alter three days incubation and assayed for cytokines.

female NOD mice [6] = assay: Histology: insulitis score and salivary gland infiltration; assay type: in vivo, mouse; settings: for Insulitis score: mean ± SD, scale 0-4, aerosol 10 consecutive days then weekly from 28 days of age, five non-diabetic mice per group at 105 days of age
Description: Mice were killed by CO2 inhalation and the pancreas and salivary glands immediately removed into Bouin's fixative and embedded in paraffin. The insulitis score, a measure of the severity of islet infiltration was determined blindly by two independent investigators by grading and then averaging a minimum of 15 separate islets in serial 6 μm pancreas sections stained with haematoxylin and eosin. The grading scale was: 0, no filtration, islet intact; 1, <10 peri-islet lymphoid cells, islet intact; 2, 10-20 peri-and intra-islet lymphoid cells, islet intact; 3, >20 peri- and intra-islet lymphoid cells, <50% of islet replaced or destroyed; 4, massive lymphoid infiltrate with >50% of islet replaced or destroyed. Infiltration of the salivary glands was graded by the number of lymphoid cells in clusters: 0, no cells; 1, <10 cells; 2, 10-50 cells; 3, >50 cells.
Mice (32/group) were given either aerosol insulin or ovalbumin for 10 consecutive days and then weekly from 28 days of age. At 105 days of age, five non-diabetic mice from each group were killed for pancreas histology. The insulitis score is expressed as mean ±SD. • 1.

insulin antibodies = assay: Insulin antibodies in serum, 125I-insulin immunoprecipitation assay; assay type: in vivo, mouse; settings: sera n=12/group, aerosol-treated mice aged 70-105 days
Description: To detect insulin antibodies, ^125lablelled human insulin (approx. 100,000 cpm: specific activity 120 μCi/μg) was incubated with or without excess unlabelled insulin (10 μg/ml) in phosphate-buffered saline containing a mixture of protease inhibitors and serial log dilutions of mouse serum, for 5 days at 4° C. Complexes were then precipitated with rabbit anti-mouse globulin anti-serum, washed and counted in a gamma counter. Positive control sera (guinea pig anti-porcine insulin serum, human IDDM sera) maximally precipitated 37-54% of the total radioactivity. Non-specific binding, in the presence of excess unlabelled insulin, was ≦3.3%.
Insulin antibodies were measured by a standard immunoprecipitation assay with sera (n=12/group) from insulin- and ovalbumin-treated mice aged 70-105 days. […] Defective suppressor T-cell function has been postulated to shift the balance towards Th1 in IDDM (11). It seems unlikely that the reduced T-cell proliferative response to GAD could reflect ‘bystander’ suppression due to the secretion of the Th2 cytokines IL4 and IL-10 (8) by insulin aerosol-induced regulatory cells because, apart from an absence of added insulin in the cultures with GAD, responses to conA and anti-CD3 were not impaired. A direct explanation is that tile reduced response to GAD reflects the protective effect of aerosol insulin on insulitis and β-cell destruction. […]

female NOD mice [7] = assay: Aerosol treatment and diabetes assessment (blood glucose >11 mM); assay type: in vivo, mouse; settings: aerosol for 10 consecutive days and then weekly, started at 49 days of age (insulitis well-established)
NOD female mice = assay: Intranasal insulin, proinsulin or proinsulin peptide 24-36, diabetes in NOD mice; assay type: in vivo, mouse; settings: for onset and incidence of diabetes: single intranasal dose at either 28 or 56 days of age, compared to control proteins ovalbumin or hen egg lysozyme; for effectiveness on a comparative dose basis: single intranasal dose, NOD female mice
Description: Intranasal insulin (FIG. 1), proinsulin (FIG. 2) or proinsulin peptide 24-36 (FIG. 3). Commercially available insulin at 4 mg/ml, or proinsuling or proinsulin peptide 24-36 at 1-4 mg/ml in either insulin carrier solution or mouse tonicity—phosphate buffered saline, was applied in a volume of 10-20 μl to the nostrils of unanaesthetised, restrained NOD female mice at either 28 or 56 days of age.

NOD mouse = settings: oral, 1 mg twice weekly; cited from earlier work
[8] = additive: Anti-CD3 antibody (10 μg/ml)
[9] = additive: Concanavalin A (5 μg/ml)
[10] = additive: Human GAD65 (20 μg/ml)
[11] = additive: Human insulin (40 μg/ml)
[12] = additive: Mouse insulin II B-chain (a 9-23) (40 μg/ml)

## Recombinant human insulin
[1]; [8]
  [3H]-thymidine uptake (cpm, mean ± SD): 2221 ± 533 cpm
[1]; [9]
  [3H]-thymidine uptake (cpm, mean ± SD): 3357 ± 812 cpm
[1]; [10]
  [3H]-thymidine uptake (cpm, mean ± SD): 424 ± 165^c cpm
[1]; [11]
  [3H]-thymidine uptake (cpm, mean ± SD): 134 ± 27 cpm
[1]; [12]
  [3H]-thymidine uptake (cpm, mean ± SD): 169 ± 80^b cpm
[1]; additive: None
  [3H]-thymidine uptake (cpm, mean ± SD): 157 ± 28^a cpm
[2]; 36 high-risk subjects aged 4-30
  side effects: No significant side effects
[2]; human subjects
  mucosal irritation: only been rare and then minor and transient
Female NOD mice [3]
  Diabetes frequency: 2/32 (6.3%)^2
  diabetes incidence at 156 days of age (median): 23%
  diabetes incidence at 240 days of age (median): 49%
  incidence of diabetes by 240 days of age: 75%
Female NOD mice [3]; NOD mice treated with aerosol or intranasal insulin
  clinical complications or abnormalities at autopsy: no clinical complications, or abnormalities at autopsy
Male NOD mice; 1.4×10^5 γδ T cells from aerosol-treated mice co-injected with 2×10^7 spleen cells from diabetic mice, for at least 70 days
  Diabetes incidence after transfer decreased: 50%
Male NOD mice; co-injection of splenocytes or nylon wool-non-adherent splenocytes from aerosol-treated mice with 2×10^7 diabetic spleen cells, six separate experiments
  Diabetes incidence suppressed after adoptive transfer: ≥ 75%
[4]
  systemic uptake from the naso-pharyngeal mucosa: insignificant
[5]
  IFN-γ secretion: 368 ± 71 pg/mL
  IL-2 secretion: 200 ± 15 pg/mL
  TGF-β secretion: 293 ± 131
  IL-4 secretion: 36 ± 6 pg/mL
  IL-10 secretion: 222 ± 149 pg/mL
Female NOD mice [6]; NOD mice, aerosol treatment
  Infiltration of the salivary glands by lymphoid cells (sialitis): unaffected
Female NOD mice [6]
  Insulitis score: 1.2 ± 0.98^1
Insulin antibodies
  Precipitation of 125I-insulin radioactivity by antibodies in sera (mean precipitated ± SD): 12.7±3.6%
Female NOD mice [7]
  diabetes incidence at 156 days: 25%
NOD female mice
  onset and incidence of diabetes: significantly delayed the onset and decreased the incidence of diabetes

## ovalbumin [control ovalbumin protein, at 4 mg/ml, delivered as aerosol]
[1]; [8]
  [3H]-thymidine uptake (cpm, mean ± SD): 2643 ± 1126 cpm
[1]; [9]
  [3H]-thymidine uptake (cpm, mean ± SD): 2960 ± 494 cpm
[1]; [10]
  [3H]-thymidine uptake (cpm, mean ± SD): 1381 ± 650^f cpm
[1]; [11]
  [3H]-thymidine uptake (cpm, mean ± SD): 197 ± 82 cpm
[1]; [12]
  [3H]-thymidine uptake (cpm, mean ± SD): 435 ± 240^e cpm
[1]; additive: None
  [3H]-thymidine uptake (cpm, mean ± SD): 208 ± 29^d cpm
Female NOD mice [3]
  Diabetes frequency: 8/32 (25%)
  diabetes incidence at 156 days of age (median): 47%
  diabetes incidence at 240 days of age (median): 79%
  incidence of diabetes by 240 days of age: 88%
[5]
  IFN-γ secretion: 423 ± 31 pg/mL
  IL-2 secretion: 186 ± 27 pg/mL
  TGF-β secretion: 162 ± 41
  IL-4 secretion: not detectable
  IL-10 secretion: not detectable
Female NOD mice [6]
  Insulitis score: 2.6 ± 0.92
Insulin antibodies
  Precipitation of 125I-insulin radioactivity by antibodies in sera (mean precipitated ± SD): 6.9±2.5%
Female NOD mice [7]
  diabetes incidence at 156 days: 58%

## porcine insulin [oral porcine insulin]
NOD mouse
  onset and incidence of diabetes: delayed the onset and reduced the incidence of diabetes

## proinsulin
NOD female mice
  onset and incidence of diabetes: significantly delayed the onset and decreased the incidence of diabetes
  effectiveness on a comparative dose basis: more effective than insulin

## proinsulin peptide 24-36 (AFVNQHLCGSHLV; pro-form; UniProt P01308 24-36, looked up, fragment) [peptide fragment of proinsulin, amino acids 24-36, applied intranasally at 1-4 mg/ml]
Male NOD mice; whole splenocytes, and splenocytes depleted of CD8 but not CD4 T cells, from female mice given a single intranasal dose at 28 days, taken at 56 days
  adoptive transfer of diabetes by splenocytes from diabetic mice: significantly suppressed the adoptive transfer of diabetes
NOD female mice
  onset and incidence of diabetes: significantly delayed the onset and decreased the incidence of diabetes
  effectiveness on a comparative dose basis: more effective than insulin
